Source: patent US20260159528A1, “HETEROCYCLIC COMPOUNDS AS TRIGGERING RECEPTOR EXPRESSED ON MYELOID CELLS 2 AGONISTS AND METHODS OF USE” (Vigil Neuroscience, Inc., priority 2021, published 2026)

Target: T1, human TREM2 (Homo sapiens, UniProt Q9NZC2)
T1 construct: expressed in transfected cells; host or cells: HEK293T
Assay: TREM2 agonist potency by cellular Syk phosphorylation (AlphaLisa) in HEK293T-hTREM2 cells
Type: cell-based
Conditions: Table D-2; HEK293 cells expressing human TREM2 and DAP12; pSyk AlphaLisa
Description: In vitro Measurement of Triggering Receptor Expressed on Myeloid Cells 2 activity using cellular phosphorylation of Spleen Tyrosine Kinase (“Syk”) Assays
Measurement of TREM2 agonist potency was done using a HEK cell line expressing human TREM2 and DAP12 (HEK293T-hTREM2 cells). Binding of small molecules to, and activation of, TREM2 increases the phosphorylation of Syk. The resultant levels of Syk phosphorylation are measured using a commercial AlphaLisa reagent kit. To perform the assay, HEK-hTREM2 cells were plated at 14,000 cells per well in a 384 well plate, in 25 µL of complete growth media and incubated at 37° C., 5% CO2 for 20-24 hours.
Prior to the assay, test compounds were diluted in the 384 well plates in assay buffer and allowed to equilibrate for 30 minutes. Growth media was removed from cell plates by inversion on blotting paper, and 25 μL of test articles in assay buffer was added to cells. Cells were incubated for 45 minutes at room temperature. After 45 minutes, assay buffer was removed and 10 μL of lysis buffer was added. Plates were shaken for 20 minutes at 350 RPM at room temperature. After complete lysis, AlphaLisa reagents were added to the lysate, and fluorescence intensity was measured using a Perkin Elmer Envision plate reader. Intensities were used to generate a standard curve, and % activation was calculated. Curve fitting was performed using Prism v9 software, log(agonist) vs response—variable slope (four parameters), and EC50s were calculated from the curve fit.
The results presented in Table D have been generated with the in vitro assay described above. This assay may be used to test any of the compounds described herein to assess and characterize a compound's ability to act as an agonist of TREM2.

T1 sequence (Q9NZC2 19-230): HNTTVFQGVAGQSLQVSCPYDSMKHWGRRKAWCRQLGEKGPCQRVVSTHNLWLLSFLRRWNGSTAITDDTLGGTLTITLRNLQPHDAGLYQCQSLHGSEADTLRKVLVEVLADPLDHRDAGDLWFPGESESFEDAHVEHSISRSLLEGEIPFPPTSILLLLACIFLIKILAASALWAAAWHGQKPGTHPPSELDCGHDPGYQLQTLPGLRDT
T1 sequence (O43914 22-113 partner): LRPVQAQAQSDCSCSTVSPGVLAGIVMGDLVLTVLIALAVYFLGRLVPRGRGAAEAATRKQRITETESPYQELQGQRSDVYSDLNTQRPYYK

`C[C@@H]1CN(c2nc(-c3cc(F)c(F)cc3F)c3sc(N(C)C)nc3n2)C[C@H](c2cnn(C3CC3)c2)O1` [Compound I-273, 5-[(2S,6R)-2-(1-cyclopropylpyrazol-4-yl)-6-methyl-morpholin-4-yl]-N,N-dimethyl-7-(2,4,5-trifluorophenyl)thiazolo[4,5-d]pyrimidin-2-amine] and `C[C@@H]1CN(c2nc(-c3ccc(F)cc3F)c3sc(N(C)C)nc3n2)C[C@H](c2cnn(C3CC3)c2)O1` (single isomer, unassigned) [Compound I-84] cannot be ordered by EC50: no more than 50 nM for the first, no more than 50 nM for the second.

Compared with `C[C@@H]1CN(c2nc(-c3ccc(F)cc3F)c3c(ncn3C)n2)C[C@H](c2cnn(C3CC3)c2)O1` [Compound I-124, (2S,6R)-2-(1-cyclopropyl-1H-pyrazol-4-yl)-4-(6-(2,4-difluorophenyl)-7-methyl-7H-purin-2-yl)-6-methylmorpholine], `CC(C)n1cc2c(-c3ccc(F)cc3F)nc(N3C[C@@H](C)O[C@@H](c4cnn(C5CC5)c4)C3)nc2n1` [Compound I-129, (2S,6R)-2-(1-cyclopropyl-1H-pyrazol-4-yl)-4-(4-(2,4-difluorophenyl)-2-isopropyl-2H-pyrazolo[3,4-d]pyrimidin-6-yl)-6-methylmorpholine] is lower in EC50: 500 to 3000 nM for the first, 50 to 500 nM for the second.

`Cc1cc(C2CN(c3nc(-c4ccc(C(F)(F)F)cc4F)c4sc(N(C)C)nc4n3)CCC2(F)F)ccn1` (racemic) [Compound I-188, 5-(4,4-difluoro-3-(2-methylpyridin-4-yl)piperidin-1-yl)-7-(2-fluoro-4-(trifluoromethyl)phenyl)-N,N-dimethylthiazolo[4,5-d]pyrimidin-2-amine] and `CN(C)c1nc2nc(N3CCC(F)(F)[C@@H](c4cnn(C5CC5)c4)C3)nc(-c3ccc(C(F)(F)F)cc3F)c2s1` (single isomer, unassigned) [Compound I-199] fall in the same range of EC50: 50 to 500 nM for the first, 50 to 500 nM for the second.

`CN(C)c1nc2nc([C@@H]3CCO[C@@H](c4ccc(=O)n(C)c4)C3)nc(-c3ccc(F)cc3F)c2s1` (racemic) [Compound I-289, 5-[(2R,4R)-4-[7-(2,4-difluorophenyl)-2-(dimethylamino)thiazolo[4,5-d]pyrimidin-5-yl]tetrahydropyran-2-yl]-1-methyl-pyridin-2-one] and `CN(C)c1nc2nc(C3CCOC(c4ccc(=O)n(C)c4)C3)nc(-c3ccc(F)cc3F)c2s1` (racemic) [Compound I-288, 5-[4-[7-(2,4-difluorophenyl)-2-(dimethylamino)thiazolo[4,5-d]pyrimidin-5-yl]tetrahydropyran-2-yl]-1-methyl-pyridin-2-one] cannot be ordered by EC50: 50 to 500 nM for the first, no more than 50 nM for the second.

`C[C@@H]1CN(c2nc(-c3ccc(F)cc3F)c3sc(N(C)C)nc3n2)C[C@H](c2cnn(C(F)F)c2)O1` [Compound I-235, 5-((2S,6R)-2-(1-(difluoromethyl)-1H-pyrazol-4-yl)-6-methylmorpholino)-7-(2,4-difluorophenyl)-N,N-dimethylthiazolo[4,5-d]pyrimidin-2-amine] and `COCn1cc([C@H]2CN(c3nc(-c4ccc(F)cc4F)c4sc(N(C)C)nc4n3)C[C@@H](C)O2)cn1` [Compound I-230, 7-(2,4-difluorophenyl)-5-[(2S,6R)-2-[1-(methoxymethyl)pyrazol-4-yl]-6-methyl-morpholin-4-yl]-N,N-dimethyl-thiazolo[4,5-d]pyrimidin-2-amine] cannot be ordered by EC50: no more than 50 nM for the first, no more than 50 nM for the second.

Compared with `CC(C)n1ncc2c(-c3ccc(F)cc3F)nc(N3C[C@@H](C)O[C@@H](c4cnn(C5CC5)c4)C3)nc21` [Compound I-139], `C[C@@H]1CN(c2nc(-c3ccc(F)cc3F)c3c(n2)nc(N2CCC2)n3C)C[C@H](c2cnn(C3CC3)c2)O1` [Compound I-191, (2S,6R)-4-(8-(azetidin-1-yl)-6-(2,4-difluorophenyl)-7-methyl-7H-purin-2-yl)-2-(1-cyclopropyl-1H-pyrazol-4-yl)-6-methylmorpholine] is lower in EC50: 500 to 3000 nM for the first, 50 to 500 nM for the second.

`CS(=O)(=O)c1nc2nc([C@H]3CCO[C@@H](c4cnn(C5CC5)c4)C3)nc(-c3ccc(C(F)(F)F)cc3N3CCC3)c2s1` [Compound I-253, 7-[2-(azetidin-1-yl)-4-(trifluoromethyl)phenyl]-5-[(2R,4S)-2-(1-cyclopropylpyrazol-4-yl)tetrahydropyran-4-yl]-2-methylsulfonyl-thiazolo[4,5-d]pyrimidine] and `Fc1cc(C(F)(F)F)ccc1-c1nc([C@@H]2CCO[C@@H](c3cnn(C4CC4)c3)C2)nc2nc(N3CCC3)sc12` (single isomer, unassigned) [Compound I-248] fall in the same range of EC50: 50 to 500 nM for the first, 50 to 500 nM for the second.

Compared with `CO[C@@H]1CCN(c2nc3nc([C@H]4CCO[C@@H](c5cnn(C6CC6)c5)C4)nc(-c4ccc(C(F)(F)F)cc4F)c3s2)C1` [Compound I-164, 5-((2R,4S)-2-(1-cyclopropyl-1H-pyrazol-4-yl)tetrahydro-2H-pyran-4-yl)-7-(2-fluoro-4-(trifluoromethyl)phenyl)-2-((R)-3-methoxypyrrolidin-1-yl)thiazolo[4,5-d]pyrimidine], `Fc1cc(C(F)(F)F)ccc1-c1nc([C@@H]2CCO[C@@H](c3cnn(C4CC4)c3)C2)nc2nc(C3CC3)sc12` (single isomer, unassigned) [Compound I-278] is higher in EC50: 50 to 500 nM for the first, 500 to 3000 nM for the second.

First: C/N=c1/sc2c(-c3ccc(Cl)cc3F)nc(N3C[C@@H](C)O[C@@H](c4cnn(C5CC5)c4)C3)nc2n1CCF [Compound I-159, (E)-7-(4-chloro-2-fluoro-phenyl)-3-(2-fluoroethyl)-N-methyl-5-[(2S,6R)-2-(1-cyclopropylpyrazol-4-yl)-6-methyl-morpholin-4-yl]thiazolo[4,5-d]pyrimidin-2-imine]
Second: CN(C)c1nc2nc([C@H]3CCO[C@@H](c4cnn(C5CC5)c4)C3)nc(-c3ccc(Cl)cc3F)c2s1 (single isomer, unassigned) [Compound I-79]
The EC50 of the first is higher: 500 to 3000 nM for the first, no more than 50 nM for the second. The second is the more potent here.

First: COCn1cc([C@H]2CN(c3nc(-c4ccc(C(F)(F)F)cc4F)c4sc(N(C)C)nc4n3)C[C@@H](C)O2)cn1 [Compound I-149, 7-[2-fluoro-4-(trifluoromethyl)phenyl]-5-[(2S,6R)-2-[1-(methoxymethyl)pyrazol-4-yl]-6-methyl-morpholin-4-yl]-N,N-dimethyl-thiazolo[4,5-d]pyrimidin-2-amine]
Second: Cc1nc2nc([C@@H]3CCO[C@@H](c4cnn(C5CC5)c4)C3)nc(-c3ccc(F)cc3F)c2s1 [Compound I-14, 5-[(2R,4R)-2-(1-cyclopropylpyrazol-4-yl)tetrahydropyran-4-yl]-7-(2,4-difluorophenyl)-2-methyl-thiazolo[4,5-d]pyrimidine]
The EC50 of the first is lower: 50 to 500 nM for the first, 500 to 3000 nM for the second. The first is the more potent here.

`CN(C)c1nc2nc([C@H]3CCO[C@@H](c4cnn(C5CC5)c4)C3)nc(-c3ccc(F)cc3F)c2n1C` [Compound I-303, 2-((2R,4S)-2-(1-cyclopropyl-1H-pyrazol-4-yl)tetrahydro-2H-pyran-4-yl)-6-(2,4-difluorophenyl)-N,N,7-trimethyl-7H-purin-8-amine] showed an EC50 of 50 to 500 nM.

Same assay, conditions: Table D; HEK293 cells expressing human TREM2 and DAP12; pSyk AlphaLisa

Work on `Cc1nc2nc([C@H]3CCO[C@@H](c4cnn(C5CC5)c4)C3)nc(-c3ccc(F)cc3F)c2s1` [Compound 4, 5-((2R,4S)-2-(1-cyclopropyl-1H-pyrazol-4-yl)tetrahydro-2H-pyran-4-yl)-7-(2,4-difluorophenyl)-2-methylthiazolo[4,5-d]pyrimidine] yielded an EC50 of 50 to 500 nM.
